In PMC10692721, “Drug discovery for heart failure targeting myosin-binding protein C” (The Journal of Biological Chemistry, 2023):
pKd: −log10 of the molar value. “Also recorded” adds a separate entry of the source.

Columns and labels:
[1] = test system: fC1-C2 binding to Alexa Fluor 568-actin; experiment: AF568-actin-MyBP-C FLT binding assay (Fig. S1); conditions: Suramin 20 µM, NF023 50 µM, ATA 20 µM
[2] = test system: TMR-MyBP-C (cC0-C2, sC1-C2S, sC1-C2L, fC1-C2); experiment: Compound effects on TMR-MyBP-C lifetime (Fig. S2); type: binding; conditions: Suramin 20 µM, NF023 50 µM, ATA 20 µM
From the text: For FLT-TMR experiments, the same samples were excited at 532 nm.
Compound effects on TMR-MyBP-C lifetime. […] All values are the average ± SD. n=5.

[3] = test system: bovine cardiac (left ventricular) myofibrils; experiment: Cardiac myofibril ATPase assay; type: biochemical; conditions: 50 μM compound; for effect on cardiac MF ATPase activity (in words): pCa 8 to pCa 4
Protocol: Rabbit psoas and bovine cardiac myofibrils were prepared as described in our previous study ([17]). An enzyme-coupled, NADH-linked ATPase assay was used to measure skeletal and cardiac myofibril ATPase activity in 96-well microplates at 23 °C. Ionic strength was maintained below 0.2 M, so myofilaments remained insoluble and stable ([32]). To achieve optimal enzymatic activities, buffers for skeletal and cardiac myofibrils differed slightly ([33], [34]): skeletal in 50 mM MOPS, 100 mM KCl, 5 mM MgCl2, 1 mM EGTA, pH 7.0; cardiac in 20 mM MOPS, 35 mM NaCl, 5 mM MgCl2, 1 mM EGTA, pH 7.0. Each well in the microplate contained an assay mix of 0.84 mM phosphoenolpyruvate, 0.17 mM NADH, 10 U/vol pyruvate kinase, 20 U/vol lactate dehydrogenase. The concentration of free Ca^2+ was controlled by EGTA buffering ([35]). Myofibrils were dispensed in microplates with a multichannel pipette and were incubated with assay mix plus compound of interest for 20 min at 23 °C. The concentration of myofibrils used was 0.01 mg/ml for skeletal and 0.05 mg/ml for cardiac myofibrils. The assay was started upon the addition of ATP, at a final concentration of 2.1 mM (total volume to 200 μl), and absorbance was recorded at 340 nm in a SpectraMax Plus microplate spectrophotometer from Molecular Devices. The steady-state myofibrillar ATPase rate was measured from NADH oxidation, measured as the rate of decrease in absorption at 340 nm for 30 min, with absorption data collected every 15 s. All data and statistical analysis of steady-state kinetics were conducted with the OriginPro program. The results were fitted with the Hill equation:(6) […] is the ATPase rate and n is the Hill coefficient. ATPase activity is reported on the μmol ATP/mg protein/min scale. Average data are presented as mean ± SD. Sample means are derived from three different myofibril preps (N = 3), each done in duplicate (n = 6). The effects of compounds on ATPase activity of myofibrils were determined in the presence of 50 μM compound, across a 12-point pCa range from 4.0 (activation) to 8.0 (relaxation). The calcium sensitivity (pCa50) was determined by fitting the curves to the Hill equation. […] The normalized ATPase activity of the selected compounds can be found in Figure 6.

[4] = test system: FMAL-actin/TMR-cC0-C2 interaction; experiment: FLT-FRET concentration-response assay, FMAL-actin plus TMR-cC0-C2; type: binding, human; conditions: unphosphorylated cC0-C2
Method in brief: (§1)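 Hits tested at eight concentrations (0.5–100 μM) and read on a high-throughput fluorescence lifetime plate reader. Hill fits applied only under certain conditions.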

[5] = test system: rabbit fast skeletal (psoas) myofibrils; experiment: Skeletal myofibril ATPase assay; type: biochemical; conditions: 50 μM compound; for effect on skeletal MF ATPase activity (in words): pCa 8 to pCa 4
Protocol: Rabbit psoas and bovine cardiac myofibrils were prepared as described in our previous study ([17]). An enzyme-coupled, NADH-linked ATPase assay was used to measure skeletal and cardiac myofibril ATPase activity in 96-well microplates at 23 °C. Ionic strength was maintained below 0.2 M, so myofilaments remained insoluble and stable ([32]). To achieve optimal enzymatic activities, buffers for skeletal and cardiac myofibrils differed slightly ([33], [34]): skeletal in 50 mM MOPS, 100 mM KCl, 5 mM MgCl2, 1 mM EGTA, pH 7.0; cardiac in 20 mM MOPS, 35 mM NaCl, 5 mM MgCl2, 1 mM EGTA, pH 7.0. Each well in the microplate contained an assay mix of 0.84 mM phosphoenolpyruvate, 0.17 mM NADH, 10 U/vol pyruvate kinase, 20 U/vol lactate dehydrogenase. The concentration of free Ca^2+ was controlled by EGTA buffering ([35]). Myofibrils were dispensed in microplates with a multichannel pipette and were incubated with assay mix plus compound of interest for 20 min at 23 °C. The concentration of myofibrils used was 0.01 mg/ml for skeletal and 0.05 mg/ml for cardiac myofibrils. The assay was started upon the addition of ATP, at a final concentration of 2.1 mM (total volume to 200 μl), and absorbance was recorded at 340 nm in a SpectraMax Plus microplate spectrophotometer from Molecular Devices. The steady-state myofibrillar ATPase rate was measured from NADH oxidation, measured as the rate of decrease in absorption at 340 nm for 30 min, with absorption data collected every 15 s. All data and statistical analysis of steady-state kinetics were conducted with the OriginPro program. The results were fitted with the Hill equation:(6) V=V0+(Vmax/1+10^−n∗^(pCa50−pCa)) where V is the ATPase rate and n is the Hill coefficient.
ATPase activity is reported on the μmol ATP/mg protein/min scale. Average data are presented as mean ± SD. Sample means are derived from three different myofibril preps (N = 3), each done in duplicate (n = 6).
The effects of compounds on ATPase activity of myofibrils were determined in the presence of 50 μM compound, across a 12-point pCa range from 4.0 (activation) to 8.0 (relaxation). The calcium sensitivity (pCa50) was determined by fitting the curves to the Hill equation. In all experiments, a 1% DMSO-only control was included. The normalized ATPase activity of the selected compounds can be found in Figure 6.

[6] = test system: TMR-cC0-C2 (C0-C2 fragment of human cMyBP-C); experiment: FLT-TMR concentration-response assay (FLT of TMR on cC0-C2, no actin); type: binding; conditions: 60 μM compound
Method in brief: as §1

[7] = test system: PKA-phosphorylated TMR-cC0-C2 (cC0-C2#P); experiment: FLT-TMR concentration-response assay, PKA-phosphorylated cC0-C2; type: binding, human; conditions: 60 μM compound
Method in brief: as §1

[8] = test system: TMR-fC1-C2 (C1-C2 of fast skeletal MyBP-C); experiment: FLT-TMR concentration-response assay, fC1-C2; type: binding; conditions: 60 μM compound
Method in brief: as §1

[9] = test system: FMAL-actin plus TMR-cC0-C2; experiment: Selleck library HTS, 473 nm excitation (FLT of FMAL-actin with TMR-cC0-C2, FLT-FRET); type: binding, human
Method in brief: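 Donor fluorescence lifetime was then recorded. Waveforms were fit to a single exponential, and ΔFLT was obtained after a moving-median plate-gradient correction (half-row window), rescaled by the median DMSO lifetime.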

[10] = test system: TMR-cC0-C2; experiment: Selleck library HTS, 532 nm excitation (FLT of TMR-cC0-C2 in presence of FMAL-actin); type: binding, human
[11] = biological target: actin (Oryctolagus cuniculus) (UniProt P68135); experiment: FLT; conditions: cited from earlier work
[12] = biological target: actin (Oryctolagus cuniculus) (UniProt P68135); experiment: FLT; conditions: cited from earlier work; remark: listed apart in the source
[13] = biological target: actin (Oryctolagus cuniculus) (UniProt P68135); experiment: cosedimentation; conditions: cited from earlier work
[14] = biological target: actin (Oryctolagus cuniculus) (UniProt P68135); experiment: cosedimentation; conditions: cited from earlier work; remark: listed apart in the source
[15] = robust z-score, hit threshold ±4, 30 μM compound

effect on binding of fC1-C2 (2 µM) to Alexa Fluor 568-actin (1 µM) (in words) [1]	effect on Ca^2+-sensitivity of cardiac MF ATPase (in words) [3]	effect on FLT-FRET / binding between FMAL-actin and TMR-cC0-C2 (in words) [4]	effect on Ca^2+-sensitivity of skeletal MF ATPase (in words) [5]	Compound	effect on FLT of TMR-MyBP-C, all MyBP-C isoforms (in words) [2]	effect on cardiac MF ATPase activity (in words) [3]	effect on skeletal MF ATPase activity (in words) [5]	further results
decreased the binding	–	–	–	O=C(O)C1=CC(=C(c2ccc(O)c(C(=O)O)c2)c2ccc(O)c(C(=O)O)c2)C=CC1=O [ATA, Aurintricarboxylic acid]	decreased	–	–	–
decreased the binding	affected	–	–	O=C(Nc1cccc(C(=O)Nc2ccc(S(=O)(=O)O)c3cc(S(=O)(=O)O)cc(S(=O)(=O)O)c23)c1)Nc1cccc(C(=O)Nc2ccc(S(=O)(=O)O)c3cc(S(=O)(=O)O)cc(S(=O)(=O)O)c23)c1 [NF023]	increased	affected	–	–
decreased the binding	eliminated the Ca^2+-sensitivity	eliminates binding	eliminated the Ca^2+-sensitivity	Cc1ccc(C(=O)Nc2ccc(S(=O)(=O)O)c3cc(S(=O)(=O)O)cc(S(=O)(=O)O)c23)cc1NC(=O)c1cccc(NC(=O)Nc2cccc(C(=O)Nc3cc(C(=O)Nc4ccc(S(=O)(=O)O)c5cc(S(=O)(=O)O)cc(S(=O)(=O)O)c45)ccc3C)c2)c1 [Suramin]	increased	remained at levels similar to those at low Ca^2+; also recorded: strongest effect	showed activation at low Ca^2+; also recorded: strongest effect	–
–	–	–	–	cardiac MyBP-C C0-C2 (from UniProt Q14896)	–	–	–	pKd [11]: 5.60; pKd [12]: 4.72; pKd [13]: 5.37; pKd [14]: 5.19

Compound	effect on binding of fC1-C2 (2 µM) to Alexa Fluor 568-actin (1 µM) (in words) [1]	effect on Ca^2+-sensitivity of cardiac MF ATPase (in words) [3]	effect on FLT-FRET / binding between FMAL-actin and TMR-cC0-C2 (in words) [4]	effect on Ca^2+-sensitivity of skeletal MF ATPase (in words) [5]	effect on FLT of TMR-MyBP-C, all MyBP-C isoforms (in words) [2]	effect on cardiac MF ATPase activity (in words) [3]	effect on skeletal MF ATPase activity (in words) [5]	further results
Enoxaparin sodium	–	significant decrease in Ca^2+-sensitivity	decrease	negligible	–	reduced at high Ca^2+; also recorded: specific for cardiac myofibril ATPase effects	reduced at high Ca^2+	cC0-C2/cC0-C2#P (ratio of FLT changes) [6]: 0.4; cC0-C2 FLT change (% change from DMSO, FLT of TMR-MyBP-C) [6]: 3.1%; cC0-C2#P FLT change (% change from DMSO, FLT of TMR-MyBP-C) [7]: 6.9%; cC0-C2/fC1-C2 (ratio of FLT changes) [8]: 1.1; fC1-C2 FLT change (% change from DMSO, FLT of TMR-MyBP-C) [8]: 2.8%; 473-nm Δτ, Repeat 1 ([9]; initial screen, 30 μM compound): 0.190 ns; 473-nm Δτ, Repeat 2 ([9]; initial screen, 30 μM compound): 0.190 ns; 473-nm z-score (based on avg Δτ) [9, 15]: 10.68; 532-nm Δτ, Repeat 1 ([10]; initial screen, 30 μM compound): -0.023 ns; 532-nm Δτ, Repeat 2 ([10]; initial screen, 30 μM compound): -0.033 ns; 532-nm z-score (based on avg Δτ) [10, 15]: -1.67; Ca^2+-sensitivity (pCa50) of cardiac MF ATPase in presence of compound ([3]; 5.77 ± 0.03 in the absence of the drug): 5.55 ± 0.03
